Measured values: PubChem BioAssay (NCI)
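Cultured in 96-well plates, cells were exposed to test compound for 48 hours across five concentrations. GI50 is the concentration that inhibits growth by half. TGI marks complete inhibition of growth.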

Assays:
Assay in all cases: NCI-60 cell line screen, 48 h
ACHN renal = tested on: ACHN renal
DU-145 prostate = tested on: DU-145 prostate
HCT-15 colon = tested on: HCT-15 colon
HT29 colon = tested on: HT29 colon
IGROV1 ovarian = tested on: IGROV1 ovarian
MALME-3M melanoma = tested on: MALME-3M melanoma
NCI-H23 lung = tested on: NCI-H23 lung
RXF 393 renal = tested on: RXF 393 renal
SF-295 CNS = tested on: SF-295 CNS
SK-MEL-28 melanoma = tested on: SK-MEL-28 melanoma

Structure (SMILES) | GI50 (ACHN renal) [µM] | TGI (ACHN renal) [µM] | GI50 (DU-145 prostate) [µM] | TGI (DU-145 prostate) [µM] | GI50 (HCT-15 colon) [µM] | TGI (HCT-15 colon) [µM] | GI50 (HT29 colon) [µM] | TGI (HT29 colon) [µM] | GI50 (IGROV1 ovarian) [µM] | TGI (IGROV1 ovarian) [µM] | GI50 (MALME-3M melanoma) [µM] | TGI (MALME-3M melanoma) [µM] | GI50 (NCI-H23 lung) [µM] | TGI (NCI-H23 lung) [µM] | GI50 (RXF 393 renal) [µM] | TGI (RXF 393 renal) [µM] | GI50 (SF-295 CNS) [µM] | TGI (SF-295 CNS) [µM] | GI50 (SK-MEL-28 melanoma) [µM] | TGI (SK-MEL-28 melanoma) [µM]
C/C=C(\C)C(=O)NC1=CC[C@@]2(C)C(=CCC3C2CC[C@@]2(C)C3CC[C@@H]2C(C)N(C)C)C1=O (stereo not given in full) | 8.03 | > 47 | 7.06 | > 59.5 | 1.54 | 4.65 | 0.57 | 2.6 | 5.17 | 21 | 2.1 | 5.34 | 3.95 | 25.1 | 1.56 | 4.53 | 2.32 | 7.33 | 1.72 | 3.24
O=C(O)CN(CC(=O)O)Cc1cc(C#Cc2ccc(C#Cc3ccccc3)cc2)cc(CN(CC(=O)O)CC(=O)O)n1 |  | 97.5 |  | > 100 |  | > 59.6 |  | > 100 |  | 78.1 |  | > 85.5 |  | > 89.7 |  | > 62.7 |  | > 88.9 |  | > 100
O=C(CCCCCCNC(=O)c1cnc(N(c2ccccc2)c2ccccc2)nc1)NO | 3.99 | 23.2 | 3.82 | > 100 | 18.4 | > 100 | 2.29 | > 35.4 | 3.2 | 16.6 | 0.73 | 5.03 | 3.97 | 38.6 | 0.796 | 3.85 | 2.95 | 10.8 | 3.41 | 33.3
CC(=O)NC1C(OC[C@@H](CC(=O)N[C@@H](CC(=O)O)CC(=O)N[C@H](CC(=O)N[C@@H](CCCN)CC(=O)N[C@@H](CCCN)CC(=O)N[C@H](CC(N)=O)C(C)C)C(C)C)NC(=O)C[C@@H](N)C(C)C)OC(CO)C(O)C1O (stereo not given in full) | > 100 | > 100 | > 100 | > 100 | > 100 | > 100 | > 100 | > 100 | > 100 | > 100 | > 100 | > 100 | > 100 | > 100 | > 100 | > 100 | > 100 | > 100 | > 100 | > 100
CN(CCO)CC[C@H](CSc1ccccc1)Nc1ccc(S(=O)(=O)NC(=O)c2ccc(N3CCC([C@@H](O)c4ccccc4-c4ccc(Cl)cc4)CC3)cc2)cc1S(=O)(=O)C(F)(F)F | > 27.8 | > 100 | 21 | > 100 | > 100 | > 100 | 7.45 | 60.6 | 2.6 | 6.63 | 2.48 | 8.55 | 17.7 | > 100 | 0.311 | 1.54 | 4.23 | 25.3 | 2.23 | 5.11
CSC(=Nc1nnc(-c2ccc([N+](=O)[O-])cc2)s1)SC |  | > 100 |  | > 100 |  | > 100 |  | > 100 |  | > 91.6 |  | > 100 |  | 98.6 |  | 45.4 |  | 50 |  | > 100
Cc1c[n+](=O)c2ccccc2n1[O-] |  | > 100 |  | > 100 |  | > 100 |  | > 100 |  | > 100 |  | > 100 |  | > 100 |  | > 100 |  | > 100 |  | > 100
COC(=O)C1CC23CCCN4CCC5(c6ccccc6N(C=O)C15CC2)C43 (stereo not given) |  | > 100 |  | > 100 |  | > 100 |  | > 100 |  | > 100 |  | > 100 |  | > 100 |  | > 100 |  | > 100 |  | > 100
COc1ccc(-c2nn(-c3cccc(Cl)c3)cc2-c2cc(-c3cccs3)[nH]c(=S)n2)cc1 | 4.05 | > 100 | 5.49 | 72.5 | 3.69 | > 100 | 3.82 | 13 | 3.61 | 15.3 | 3.49 | 15.8 | 3.43 | 16.2 | 3.76 | 19.5 | 2.07 | 7.09 | 3.93 | 15.7
CCN(Cc1ccc(Cl)cc1)c1ccc(CO)c(Cl)c1 | 4.64 | 19.6 | 7.89 | 22.7 | 3.52 | 19.8 | 3.12 | 13.5 | 0.0867 | 0.641 | 12.8 | 28.5 | 3.23 | 22.8 | 2.07 | 13.3 | 0.997 | 12.1 | 11.2 | 24.2
C=C1C(=O)O[C@H]2[C@H]1CC/C(COC(=O)CSCSCC(=O)OC/C1=C/CC[C@@]3(C)O[C@H]3[C@H]3OC(=O)C(=C)[C@@H]3CC1)=C\CC[C@@]1(C)O[C@@H]21 | 1.33 | 2.6 | 1.66 | 3.19 | 1.33 | 2.83 | 1.37 | 2.82 | 1.78 | 4.46 | 1.58 | 3.29 | 1.83 | 4.01 | 1.23 | 2.83 | 1.85 | 4.46 | 1.63 | 3.19
C=C(C)[C@@H]1CC[C@]2(C)CC[C@]3(C)[C@H](CC[C@@H]4[C@@]5(C)CC[C@H](O)C(C)(C)[C@@H]5CC[C@]43C)[C@@H]12 |  | > 100 |  | > 100 |  | > 100 |  | > 100 |  | > 100 |  | > 100 |  | > 100 |  | 28.7 |  | > 82.7 |  | > 100
COc1ncnc2c(-c3ccccc3)cn(COCc3ccccc3)c12 | 3.82 | > 100 | 10.4 | > 100 | 2.48 | > 100 | 3.49 | > 100 | 7.16 | > 100 | 2.52 | 7.69 | 3.02 | > 100 | 2.5 | 7.71 | 2.82 | 15.4 | 3.33 | 48.9
CCCCCCCCNc1cc2c3c(c1)CCCN3CCC2 | 3.22 | 17.7 | 2.61 | 12.8 | 10.5 | 38.5 | 0.774 | 11.1 | 1.77 | 8.3 | 2.05 | 8.53 | 1.79 | 18.1 | 4.07 | 17.9 | 2.31 | 10.8 | 3.87 | 17.8
O=C(Oc1cccc(F)c1OC(=O)c1cccc(O)c1)c1cccc(O)c1 | 23.6 | > 100 | 44.7 | > 100 | 15.3 | > 100 | 41.8 | > 100 | 7.47 | > 100 | > 100 | > 100 | 26.9 | > 100 | 12.1 | 73.6 | 36.1 | > 100 | 80.1 | > 100
